In one assay the target is Mcl-1 (Homo sapiens (Human), UniProt Q07820). Kind of assay: TR-FRET binding assay, FITC-Bak peptide and MBP-tagged Mcl-1. Conditions: read-out: Ki for Inhibition of Mcl-1 by TR-FRET assay. As for the experimental part:
Compounds are diluted in DMSO in a 16-point, semilog serial dilution scheme. […] The plate was mixed and incubated for 3 hours at room temperature. […] TR-FRET signal is plotted and IC50 and Ki values are calculated in the same manner as the fluorescence polarization anisotropy based competition assays.
In general terms: In TR-FRET formats the signal depends on donor and acceptor labels being close together.

Assay [1] has as its system H929 human cancer cell lines. Put plainly: Cellular viability / proliferation (Cell TiterGlo, 72 h). Conditions: Homo sapiens, NCI-H929, 72 h, read-out: GI50 on cellular proliferation of H929 human cancer cell lines, H929 cells, 72 h, Cell TiterGlo, 10% FBS. Format: cell-based. The method, boiled down:
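H929 cells plated at 1,000/well in 10% FBS medium received a 2-fold serial compound dilution (top 50 μM, DMSO <1%) 24 h later. After 72 h, viability was read by CellTiter-Glo luminescence. IC50 came from a four-parameter fit.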
A general note: Cellular ATP, detected with luciferase, serves as a proxy for viable cell number.

Molecules are shown by their SMILES.

Mcl-1, sequence (Q07820 172-327): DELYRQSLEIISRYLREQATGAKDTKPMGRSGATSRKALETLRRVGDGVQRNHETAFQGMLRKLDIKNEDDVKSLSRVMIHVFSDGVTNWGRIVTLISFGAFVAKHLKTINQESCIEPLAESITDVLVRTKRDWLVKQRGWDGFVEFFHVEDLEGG

Usually Ki stands for a dissociation constant, usually derived from enzyme kinetics or from competition with a known ligand. Regarding `Cc1cc(OCCCc2c3n(c4c(-c5c(C)nn(C)c5C)c(Cl)ccc24)[C@H](C)CN(c2cn(C)c4ccc(-c5nc6c(C)cccn6n5)cc24)C3=O)cc(C)c1Cl` [Example 698, (R)-7-Chloro-10-(3-(4-chloro-3,5-dimethylphenoxy)propyl)-4-methyl-2-(1-methyl-5-(8-methyl-[1,2,4]triazolo[1,5-a]pyridin-2-yl)-1H-indol-3-yl)-6-(1,3,5-trimethyl-1H-pyrazol-4-yl)-3,4-dihydropyrazino[1,2-a]indol-1(2H)-one], the Ki at Mcl-1 turned out to be 1.8 nM. Further, the GI50 in assay [1] was found to be 620 nM.
For `COCCOCc1cccn2nc(-c3ccc4c(c3)c(N3C[C@@H](C)n5c(c(CCCOc6cc(C)c(Cl)c(C)c6)c6ccc(Cl)c(-c7c(C)nn(C)c7C)c65)C3=O)cn4C)nc12` [Example 699, (R)-7-Chloro-10-(3-(4-chloro-3,5-dimethylphenoxy)propyl)-2-(5-(8-((2-methoxyethoxy)methyl)-[1,2,4]triazolo[1,5-a]pyridin-2-yl)-1-methyl-1H-indol-3-yl)-4-methyl-6-(1,3,5-trimethyl-1H-pyrazol-4-yl)-3,4-dihydropyrazino[1,2-a]indol-1(2H)-one], in that order: 1.2 nM and 350 nM.
For `Cc1cnc(-n2cnc(-c3ccc4c(c3)c(N3C[C@@H](C)n5c(c(CCCOc6cc(C)c(Cl)c(C)c6)c6ccc(Cl)c(-c7c(C)nn(C)c7C)c65)C3=O)cn4C)n2)nc1` [Example 700, (R)-7-Chloro-10-(3-(4-chloro-3,5-dimethylphenoxy)propyl)-4-methyl-2-(1-methyl-5-(1-(5-methylpyrimidin-2-yl)-1H-1,2,4-triazol-3-yl)-1H-indol-3-yl)-6-(1,3,5-trimethyl-1H-pyrazol-4-yl)-3,4-dihydropyrazino[1,2-a]indol-1(2H)-one], in that order: 0.73 nM and 380 nM.
For `Cc1cc(OCCCc2c3n(c4c(-c5c(C)nn(C)c5C)c(Cl)ccc24)[C@H](C)CN(c2cc(CCN4CCOCC4)cc4cc(C(=O)O)n(C)c24)C3=O)cc(C)c1Cl` [Example 715, (R)-7-(7-chloro-10-(3-(4-chloro-3,5-dimethylphenoxy)propyl)-4-methyl-1-oxo-6-(1,3,5-trimethyl-1H-pyrazol-4-yl)-3,4-dihydropyrazino[1,2-a]indol-2(1H)-yl)-1-methyl-5-(2-morpholinoethyl)-1H-indole-2-carboxylic acid], in that order: < 0.2 nM and < 200 nM.
For the molecule `COCCOc1cc(N2C[C@@H](C)n3c(c(CCCOc4cc(C)c(Cl)c(C)c4)c4ccc(Cl)c(-c5c(C)n[nH]c5C)c43)C2=O)c2c(c1)cc(C(=O)O)n2C` [Example 716, (R)-7-(7-chloro-10-(3-(4-chloro-3,5-dimethylphenoxy)propyl)-6-(3,5-dimethyl-1H-pyrazol-4-yl)-4-methyl-1-oxo-3,4-dihydropyrazino[1,2-a]indol-2(1H)-yl)-5-(2-methoxyethoxy)-1-methyl-1H-indole-2-carboxylic acid], the Ki on Mcl-1 is < 0.2 nM. Further, the GI50 in assay [1] was found to be 550 nM.
With `COCCn1c(C(=O)O)cc2cc(C)cc(N3C[C@@H](C)n4c(c(CCCOc5cc(C)c(Cl)c(C)c5)c5ccc(Cl)c(-c6c(C)nc(CN7CCOCC7)nc6C)c54)C3=O)c21` [Example 717, (R)-7-(7-chloro-10-(3-(4-chloro-3,5-dimethylphenoxy)propyl)-6-(4,6-dimethyl-2-(morpholinomethyl)pyrimidin-5-yl)-4-methyl-1-oxo-3,4-dihydropyrazino[1,2-a]indol-2(1H)-yl)-1-(2-methoxyethyl)-5-methyl-1H-indole-2-carboxylic acid], the Ki at Mcl-1 is < 0.2 nM. The GI50 in assay [1] is < 200 nM.
Turning to `COCCn1c(C(=O)O)cc2cc(C)cc(N3C[C@@H](C)n4c(c(CCCOc5cc(C)c(Cl)c(C)c5)c5ccc(Cl)c(-c6c(C)n[nH]c6C)c54)C3=O)c21` [Example 718, (R)-7-(7-chloro-10-(3-(4-chloro-3,5-dimethylphenoxy)propyl)-6-(3,5-dimethyl-1H-pyrazol-4-yl)-4-methyl-1-oxo-3,4-dihydropyrazino[1,2-a]indol-2(1H)-yl)-1-(2-methoxyethyl)-5-methyl-1H-indole-2-carboxylic acid], the Ki on Mcl-1 was < 0.2 nM. In addition, the GI50 in assay [1] came out at 410 nM.
For `Cc1cc(N2C[C@@H](C)n3c(c(CCCOc4cc(C)c(Cl)c(C)c4)c4ccc(Cl)c(-c5c(C)n[nH]c5C)c43)C2=O)c2c(c1)cc(C(=O)O)n2Cc1ccccn1` [Example 719, (R)-7-(7-chloro-10-(3-(4-chloro-3,5-dimethylphenoxy)propyl)-6-(3,5-dimethyl-1H-pyrazol-4-yl)-4-methyl-1-oxo-3,4-dihydropyrazino[1,2-a]indol-2(1H)-yl)-5-methyl-1-(pyridin-2-ylmethyl)-1H-indole-2-carboxylic acid], in that order: < 0.2 nM and 640 nM.
Take `Cc1cc(OCCCc2c3n(c4c(-c5c(C)nn(C)c5C)c(Cl)ccc24)[C@H](C)CN(c2cn(CCN4CCOCC4)c4ccc(-c5ncn(-c6ncccn6)n5)cc24)C3=O)cc(C)c1Cl` [Example 720, (R)-7-Chloro-10-(3-(4-chloro-3,5-dimethylphenoxy)propyl)-4-methyl-2-(1-(2-morpholinoethyl)-5-(1-(pyrimidin-2-yl)-1H-1,2,4-triazol-3-yl)-1H-indol-3-yl)-6-(1,3,5-trimethyl-1H-pyrazol-4-yl)-3,4-dihydropyrazino[1,2-a]indol-1(2H)-one]: the Ki on Mcl-1 came to 0.51 nM. Further, the GI50 in assay [1] turned out to be 220 nM.
For `COCCn1cnc(-c2ccc3c(c2)c(N2C[C@@H](C)n4c(c(CCCOc5cc(C)c(Cl)c(C)c5)c5ccc(Cl)c(-c6c(C)nc(CN7CCN(C)C(=O)C7)nc6C)c54)C2=O)cn3CCN2CCOCC2)n1` [Example 722, (R)-7-Chloro-10-(3-(4-chloro-3,5-dimethylphenoxy)propyl)-6-(4,6-dimethyl-2-((4-methyl-3-oxopiperazin-1-yl)methyl)pyrimidin-5-yl)-2-(5-(1-(2-methoxyethyl)-1H-1,2,4-triazol-3-yl)-1-(2-morpholinoethyl)-1H-indol-3-yl)-4-methyl-3,4-dihydropyrazino[1,2-a]indol-1(2H)-one], in that order: 3.1 nM and < 200 nM.
For `Cc1cc(OCCCc2c3n(c4c(-c5c(C)nn(C)c5C)c(Cl)ccc24)[C@H](C)CN(c2cc(CCN4CCCCC4)cc4cc(C(=O)O)n(C)c24)C3=O)cc(C)c1Cl` [Example 723, (R)-7-(7-chloro-10-(3-(4-chloro-3,5-dimethylphenoxy)propyl)-4-methyl-1-oxo-6-(1,3,5-trimethyl-1H-pyrazol-4-yl)-3,4-dihydropyrazino[1,2-a]indol-2(1H)-yl)-1-methyl-5-(2-(piperidin-1-yl)ethyl)-1H-indole-2-carboxylic acid], in that order: < 0.2 nM and < 200 nM.
As to `COc1ccc(N2C[C@@H](C)n3c(c(CCCOc4cc(C)c(Cl)c(C)c4)c4ccc(Cl)c(-c5c(C)n[nH]c5C)c43)C2=O)c2c1cc(C(=O)O)n2Cc1ccccn1` [Example 724, (R)-7-(7-chloro-10-(3-(4-chloro-3,5-dimethylphenoxy)propyl)-6-(3,5-dimethyl-1H-pyrazol-4-yl)-4-methyl-1-oxo-3,4-dihydropyrazino[1,2-a]indol-2(1H)-yl)-4-methoxy-1-(pyridin-2-ylmethyl)-1H-indole-2-carboxylic acid], on Mcl-1, the Ki is < 0.2 nM. For the same molecule, in assay [1], the GI50 was 330 nM.
